How the values were obtained:
HCT116-DoxR cells [1] = test: Cell cycle progression analysis (PI, flow cytometry); type: cell-based, human; conditions: complexes at IC50, Dox 6 μM, Cis 5 μM; 9, 12, 18, 24 h after double thymidine block
Text: It is important to note that exposure to increased levels of ROS can trigger genotoxic stress, an effect often associated with chemotherapy and that may promote cell cycle arrest.[84] The cell cycle comprises a sequential set of cellular events such as checkpoints that regulate transitions between different phases when cells are under stress conditions. Indeed, if DNA damage occurs, interphase checkpoints can trigger cell cycle arrest, repair, and induction of apoptosis or senescence.[85] Indeed, data in Table 7 show some degree of accumulation of both complexes in the nucleus, which may expose the genomic DNA to their action. […] This DNA intercalating fluorophore allows the analysis of DNA content in various phases of the cell cycle (G0/G1, S, and G2/M) (the fluorescence intensity emitted by PI doubles with the duplication of DNA quantity in the G1 and G2 phases),[86] and its detection can be performed by flow cytometry. […] To ensure that all cells were in the same phase of the cell cycle (S phase) when exposed to the Cu(II) complexes and controls, a double thymidine block was applied.[83]
HCT116-DoxR cells were cultured in six-well plates at a density of 1 × 10^5 cells/mL and incubated at 37 °C, 5% (v/v) CO2, and 99% (v/v) relative humidity for 8 h. To ensure that cells were in the same phase of the cell cycle, they were subjected to a double thymidine block for synchronization. At the end of the incubation, the culture medium was replaced with 2 mM thymidine in complete medium, and cells were incubated for 16 h. After incubation, the thymidine-containing medium was replaced with a thymidine-free complete medium, and cells were incubated for an additional 8 h. After this time, a second thymidine block was applied, as described earlier. At the end of the incubation, the thymidine-containing medium was replaced with a fresh medium containing the cooper complexes at their IC50 concentration. A 0.1% (v/v) DMSO solution was used as vehicle control, while 6 μM Dox, and 5 μM Cis were used as positive controls. Cells were incubated again for 9, 12, 18, and 24 h. Immediately after exposure (0 h) and at the end of each incubation period, the medium was removed, cells detached with TrypLE Express, and centrifuged for 5 min at 650 × g, at 4 °C. The pellet was resuspended in cold PBS 1× and centrifuged at 3000 × g for 5 min, at 4 °C. Later, the pellet was resuspended in cold PBS 1×, and 1 mL of 80% (v/v) cold ethanol was added dropwise to each tube. […] The DNA content was evaluated on an Attune acoustic focusing flow cytometer (Life Technologies, Carlsbad, USA), and the results were analyzed by the respective software (Attune Cytometric software).

HCT116-DoxR cells [2] = test: Apoptosis by Annexin V-FITC/PI flow cytometry; type: cell-based, human; conditions: 48 h, complexes at IC50, Dox 6 μM, Cis 5 μM
Experimental: Initially, a quantitative assay with double staining using annexin V-FITC (FITC, fluorescein isothiocyanate) and propidium iodide (PI) through flow cytometry was performed.[24] Annexin V-FITC, a probe with an affinity for the ionic phospholipid phosphatidylserine (PS), predominantly located on the inner side of the plasma membrane in healthy cells, undergoes translocation to the outer plasma membrane during the early stages of apoptosis.[61],[67] In contrast, PI is a DNA intercalating agent that marks cells with compromised plasma membrane (usually in the late stages of apoptosis or in necrosis), emitting red fluorescence upon interaction with nucleic acids.[54],[68] This assay allows for distinguishing cells in four different conditions: viable cells (FITC–, PI−), early apoptosis (FITC+, PI−), late apoptosis (FITC+, PI+), and necrosis (FITC–, PI+).
The Annexin V-FITC Apoptosis Detection Kit (catalog no. V13245, Invitrogen, USA) was used in this study for the induction of apoptosis analysis. HCT116-DoxR cells were seeded in 6-well plates at a cell density of 1 × 10^5 cells/mL and incubated for 24 h, under the same conditions mentioned before. […] After this incubation period, the cells were washed with PBS 1× and trypsinized with TrypLE Express (Invitrogen). The supernatant was discarded, and the pellet was washed with PBS 1×. The cells were resuspended in 1× Annexin V-FITC binding buffer. Subsequently, the samples were incubated at room temperature (RT) with Alexa Fluor 488 annexin V and 100 μg/mL of propidium iodide (PI) in the dark for 15 min. After incubation, 1× Annexin V-FITC binding buffer was added and the samples were analyzed using an Attune Acoustic Focusing Flow Cytometer (Life Technologies, Carlsbad, USA). Results were processed with Attune Cytometric software.

calf-thymus DNA (ctDNA) = test: Ethidium bromide displacement assay; type: binding; conditions: for Ksv (Stern-Volmer constant): ctDNA-EB adduct in PBS buffer, EB 50 μM
Text: Compounds that intercalate between DNA base pairs equally or more strongly than EB replace it from the adduct ctDNA-EB, which results in a noticeable decrease or quenching of the fluorescence emission. […] For both Cu1a and Cu1b, the decrease in the fluorescence intensity of ctDNA-EB with increasing complex concentrations fulfills the linear Stern–Volmer equation (eq 3)[90]: [drawing 6] 3
The apparent binding constants (Kapp) are estimated using eq 4: [drawing 7] 4 (where KEB = 1.0 × 10^7 M^–1, [EB] is the EB concentration (50 μM), [Q50] is the complex concentration at 50% reduction of EB fluorescence intensity, estimated based on the linear Stern–Volmer plot for I^0/I = 2). Kapp is equal to 1.75 × 10^5 M^–1 for Cu1a and 2.35 × 10^6 M^–1 for Cu1b. […] Nevertheless, both Cu(II) complexes show rather moderate ability to replace EB from the adduct with ctDNA.[21]
Ethidium bromide (EB) and calf-thymus DNA (ctDNA) were purchased from Sigma-Aldrich and Thermo Fisher Scientific, respectively. Prior to experiments, a solution containing 10 mg/mL of ctDNA in DNase-free and RNase-free distilled, deionized water was spectroscopically monitored at 260 nm and at 280 nm to determine the concentration and check the purity.
The ethidium bromide (EB) fluorescence displacement assay was carried out using a Hitachi F-7000 spectrofluorometer. An equimolar amount (50 μM) of EB solution was added to ctDNA solution at room temperature, followed by 2 h incubation in the dark. The compound was then titrated into the EB–ctDNA mixture, well mixed, and allowed to stand for 30 min. The concentrations of the complexes varied from 0 to 40 μM.

Row | SMILES | effect on cell cycle progression (HCT116-DoxR cells [1]) | early apoptosis (HCT116-DoxR cells [2]) | late apoptosis (HCT116-DoxR cells [2]) | necrosis (HCT116-DoxR cells [2]) | early apoptosis (HCT116-DoxR cells [2]; listed as cisplatin) | late apoptosis (HCT116-DoxR cells [2]; listed as cisplatin) | Ksv (Stern-Volmer constant) (calf-thymus DNA (ctDNA)) | viable cells (HCT116-DoxR cells [2]) | apparent binding constant Kapp (calf-thymus DNA (ctDNA); eq 4, KEB = 1.0 × 10^7 M^–1, [EB] 50 μM) | late apoptosis (HCT116-DoxR cells [2]; listed as Dox) [%] | necrosis (HCT116-DoxR cells [2]; listed as Dox) [%] | viable cells (HCT116-DoxR cells [2]; listed as Dox)
1 | N.N.[Cl][Pt][Cl] [Cisplatin] | has a cytostatic effect in G2/M after incubation for 24 h | 40.1% | 25.8% | 0.9% ± 1.1 | 40.1% ± 11.8 | 25.8% ± 7.7 | – | – | – | – | – | –
2 | [Cl][Cu-3]12([Cl])[n+]3ccccc3-c3cc(-c4cccc5ccccc45)cc([n+]31)-c1cccc[n+]12 [Cu1a] | a delay in the cell cycle at the S phase after 9 h, in the G2/M after 12 h of incubation, and a delay in the cell cycle at G0/G1 at 18 h | – | – | – | – | – | 3.8 × 10^3 M^–1 | 23.1% ± 4.5 | – | – | – | –
3 | [Cl][Cu-3]12([Cl])[n+]3ccccc3-c3cc(-c4ccc5ccccc5c4)cc([n+]31)-c1cccc[n+]12 [Cu1b] | a delay in the cell cycle at the S phase after 9 h, in the G2/M after 12 h of incubation, and a delay in the cell cycle at G0/G1 at 18 h | – | – | 0.7% ± 0.6 | – | – | 4.7 × 10^3 M^–1 | 59.3% ± 7.8 | 2.35 × 10^6 M^–1 | – | – | –
4 | COc1cccc2c1C(=O)c1c(O)c3c(c(O)c1C2=O)C[C@@](O)(C(=O)CO)C[C@@H]3O[C@H]1C[C@H](N)[C@H](O)[C@H](C)O1 [Doxorubicin] | did not affect the cell cycle progression or cause an arrest | 16.6% ± 5.5 | 13.9% ± 1.9 | 9.8% ± 4.0 | – | – | – | 59.8% ± 3.8 | – | 13.9 | 9.8 | about 59.8%

Source: PMC11571215, “Optimization of Antiproliferative Properties of Triimine Copper(II) Complexes” (Journal of Medicinal Chemistry, 2024)
